Patent US9073895B2 (Boehringer Ingelheim International GmbH, priority 2010, dated 2015)

Key:
[1] = target: T1, recombinant human FLAP protein (Homo sapiens, UniProt P20292); assay: FLAP binding assay (SPA, displacement of [125I]L-691,831); details: membranes of sf9 cells expressing human FLAP, [125I]L-691,831 probe; read-out: hFLAP binding IC50
T1 construct: made in house; host or cells: Sf9 insect cells (membrane fraction, 100,000 x g pellet)
T1 sequence (P20292 1-161): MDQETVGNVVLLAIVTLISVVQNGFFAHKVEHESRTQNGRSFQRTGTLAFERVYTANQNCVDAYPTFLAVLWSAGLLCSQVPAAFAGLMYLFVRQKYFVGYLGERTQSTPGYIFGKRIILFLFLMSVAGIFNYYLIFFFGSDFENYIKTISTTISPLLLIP
How it was run: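 Membranes from sf9 cells expressing human FLAP (5 μg/well) were bound to WGA SPA beads (200 μg/well). Nonspecific binding was defined with 10 μM unlabelled L-691,831.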

[2] = system: synthesis of LTB4 in human whole blood; assay: Human whole blood LTB4 production inhibition assay; type: cell-based; details: heparinized human whole blood, calcimycin 20 μM, plasma LTB4; read-out: HuWB IC50
How it was run: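 Heparinized human whole blood preincubated with compound 15 min at 37 °C, then stimulated with calcimycin (20 μM final) for 30 min at 37 °C. Plasma LTB4 measured after low-speed centrifugation by antibody-based homogeneous time-resolved fluorescence.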

Structure (SMILES)	IC50 [1]	IC50 [2]
Cc1nc(-c2ccc(NC(=O)C3(c4ccc(-c5cnc6[nH]ccc6c5)cc4)CCOCC3)nc2)cs1 [Example 151, N-[5-(2-methyl-1,3-thiazol-4-yl)pyridin-2-yl]-4-[4-(1H-pyrrolo[2,3-b]pyridin-5-yl)phenyl]tetrahydro-2H-pyran-4-carboxamide]	2.1 nM	200 nM
Cc1nc(-c2ccc(NC(=O)C3(c4ccc(-c5cnc6c(c5)CCN6)cc4)CCOCC3)nc2)cs1 [Example 153, 4-[4-(2,3-dihydro-1H-pyrrolo[2,3-b]pyridin-5-yl)phenyl]-N-[5-(2-methyl-1,3-thiazol-4-yl)pyridin-2-yl]tetrahydro-2H-pyran-4-carboxamide]	7.8 nM	509 nM
COc1cncc(-c2ccc(NC(=O)C(C)(c3ccc(-c4cnc(N)nc4)cc3)C(C)C)nc2)c1 (centres unmarked) [Example 162, 2-[4-(2-aminopyrimidin-5-yl)phenyl]-N-(5'-methoxy-3,3'-bipyridin-6-yl)-2,3-dimethylbutanamide]	4.1 nM	896 nM
COc1ccc(-c2ccc(NC(=O)C(C)(c3ccc(-c4cnc(N)nc4)cc3)C(C)C)nc2)cn1 (centres unmarked) [Example 163, 2-[4-(2-aminopyrimidin-5-yl)phenyl]-N-(6'-methoxy-3,3'-bipyridin-6-yl)-2,3-dimethylbutanamide]	6.75 nM	404 nM
COc1ccc(-c2ccc(NC(=O)C(C)(c3ccc(-c4cnc5c(c4)CCN5)cc3)C(C)C)nc2)cn1 (centres unmarked) [Example 164, 2-[4-(2,3-dihydro-1H-pyrrolo[2,3-b]pyridin-5-yl)phenyl]-N-(6'-methoxy-3,3'-bipyridin-6-yl)-2,3-dimethylbutanamide]	1.9 nM	315 nM
COc1cncc(-c2ccc(NC(=O)C(C)(c3ccc(-c4cnc5c(c4)CCN5)cc3)C(C)C)nc2)c1 (centres unmarked) [Example 165, 2-[4-(2,3-dihydro-1H-pyrolo[2,3-b]pyridin-5-yl)phenyl]-N-(5'-methoxy-3,3'-bipyridin-6-yl)-2,3-dimethylbutanamide]	1.4 nM	354 nM
COc1ccc(-c2ccc(NC(=O)C(C)(c3ccc(-c4cnc5[nH]ccc5c4)cc3)C(C)C)nc2)cn1 (centres unmarked) [Example 166, N-(6'-methoxy-3,3'-bipyridin-6-yl)-2,3-dimethyl-2-[4-(1H-pyrolo[2,3-b]pyridin-5-yl)phenyl]butanamide]	3 nM	332 nM
COc1cncc(-c2ccc(NC(=O)C3(c4ccc(-c5cnc6[nH]ccc6c5)cc4)CCOCC3)nc2)c1 [Example 167, N-(5'-methoxy-3,3'-bipyridin-6-yl)-4-[4-(1H-pyrrolo[2,3-b]pyridin-5-yl)phenyl]tetrahydro-2H-pyran-4-carboxamide]	4.7 nM	354 nM
O=C(Nc1ccc(Oc2ccccc2)cn1)C1(c2ccc(-c3cnc4[nH]ccc4c3)cc2)CCOCC1 [Example 174, N-(5-phenoxypyridin-2-yl)-4-[4-(1H-pyrrolo[2,3-b]pyridin-5-yl)phenyl]tetrahydro-2H-pyran-4-carboxamide]	18.1 nM	686 nM
COc1cncc(-c2ccc(NC(=O)C3(c4ccc(-c5cnc6c(c5)CCN6)cc4)CCOCC3)nc2)c1 [Example 175, 4-[4-(2,3-dihydro-1H-pyrolo[2,3-b]pyridin-5-yl)phenyl]-N-(5'-methoy-3,3'-bipyridin-6-yl)tetrahydro-2H-pyran-4-carboxamide]	22 nM	1280 nM
CC(C)C(C)(C(=O)Nc1cccnc1)c1ccc(-c2cnc3[nH]ccc3c2)cc1 (centres unmarked) [Example 180, 2,3-dimethyl-N-(pyridin-3-yl)-2-[4-(1H-pyrrolo[2,3-b]pyridin-5-yl)phenyl]butanamide]	6.3 nM	402 nM
Cc1nc(-c2ccc(NC(=O)C3(c4ccc(-c5cnc(N)c(C)n5)cc4)CCOCC3)nc2)cs1 [Example 182, 4-[4-(5-amino-6-methylpyrazin-2-yl)phenyl]-N-[5-(2-methyl-1,3-thiazol-4-yl)pyridin-2-yl]tetrahydro-2H-pyran-4-carboxamide]	32.5 nM	1060 nM
CC(C)C(C)(C(=O)Nc1cccnc1)c1ccc(-c2cnc(N)nc2)cc1 (centres unmarked) [Example 184, 2-[4-(2-aminopyrimidin-5-yl)phenyl]-2,3-dimethyl-N-(pyridin-3-yl)butanamide]	39 nM	1470 nM

Results, then the molecule that gave them:

IC50 [1]	IC50 [2]	Structure (SMILES)
48 nM	3590 nM	CC(C)(C)OC(=O)N1CCc2cc(NC(=O)C3(c4ccc(-c5cnc(N)nc5)cc4)CCOCC3)ccc2C1 [Example 150, tert-butyl 6-[({4-[4-(2-aminopyrimidin-5-yl)phenyl]tetrahydro-2H-pyran-4-yl}carbonyl)amino]-3,4-dihydroisoquinolin-2(1H)-carboxylate]
34.5 nM	896 nM	Cc1nc(-c2ccc(NC(=O)C3(c4ccc(-c5cnc(N)c(C)c5)cc4)CCOCC3)nc2)cs1 [Example 152, 4-[4-(6-amino-5-methylpyridin-3-yl)phenyl]-N-[5-(2-methyl-1,3-thiazol-4-yl)pyridin-2-yl]tetrahydro-2H-pyran-4-carboxamide]
63.3 nM	1370 nM	Nc1ncc(-c2ccc(C3(C(=O)Nc4ccc(-n5ccnc5)cc4)CCOCC3)cc2)cn1 [Example 154, 4-[4-(2-aminopyrimidin-5-yl)phenyl]-N-[4-(1H-imidazol-1-yl)phenyl]tetrahydro-2H-pyran-4-carboxamide]
136 nM	857 nM	Nc1ncc(-c2ccc(C3(C(=O)Nc4ccncc4)CCOCC3)cc2)cn1 [Example 155, 4-[4-(2-aminopyrimidin-5-yl)phenyl]-N-(pyridin-4-yl)tetrahydro-2H-pyran-4-carboxamide]
36 nM	5270 nM	CC(C)(C(=O)Nc1ccccn1)c1ccc(-c2cnc(N)nc2)cc1 [Example 158, 2-[4-(2-aminopyrimidin-5-yl)phenyl]-2-methyl-N-(pyridin-2-yl)propanamide]
7.95 nM	616 nM	COc1ccc(-c2ccc(NC(=O)C3(c4ccc(-c5cnc6[nH]ccc6c5)cc4)CCOCC3)nc2)cn1 [Example 168, N-(6'-methoxy-3,3'-bipyridin-6-yl)-4-[4-(1H-pyrrolo[2,3-b]pyridin-5-yl)phenyl]tetrahydro-2H-pyran-4-carboxamide]
5.25 nM	330 nM	CC(C)C(C)(C(=O)Nc1ccncc1)c1ccc(-c2cnc(N)nc2)cc1 (centres unmarked) [Example 169, 2-[4-(2-aminopyrimidin-5-yl)phenyl]-2,3-dimethyl-N-(pyridin-4-yl)butanamide]
9.8 nM	894 nM	COc1ccc(-c2ccc(NC(=O)C3(c4ccc(-c5cnc(N)c(CO)c5)cc4)CCOCC3)nc2)cn1 [Example 170]
2.05 nM	566 nM	COc1cncc(-c2ccc(NC(=O)C3(c4ccc(-c5cnc(N)c(CO)c5)cc4)CCOCC3)nc2)c1 [Example 171, 4-{4-[6-amino-5-(hydroxymethyl)pyridin-3-yl]phenyl}-N-(5'-methoxy-3,3'-bipyridin-6-yl)tetrahydro-2H-pyran-4-carboxamide]
18 nM	930 nM	Nc1ncc(-c2ccc(C3(C(=O)Nc4ccc(Oc5ccccc5)cn4)CCOCC3)cc2)cn1 [Example 173, 4-[4-(2-aminopyrimidin-5-yl)phenyl]-N-(5-phenoxypyridin-2-yl)tetrahydro-2H-pyran-4-carboxamide]
6.65 nM	712 nM	Cc1nc(-c2ccc(NC(=O)C3(c4ccc(-c5cnc(N)c(CO)c5)cc4)CCOCC3)nc2)cs1 [Example 176, 4-{4-[6-amino-5-(hydroxymethyl)pyridin-3-yl]phenyl}-N-[5-(2-methyl-1,3-thiazol-4-yl)pyridin-2-yl]tetrahydro-2H-pyran-4-carboxamide]
5.1 nM	217 nM	Nc1ncc(-c2ccc(C3(C(=O)Nc4ccncc4)CCC3)cc2)cn1 [Example 177, 1-[4-(2-aminopyrimidin-5-yl)phenyl]-N-(pyridin-4-yl)cyclobutanecarboxamide]
35.5 nM	557 nM	Cc1noc(-c2ccc(NC(=O)C3(c4ccc(-c5cnc(N)nc5)cc4)CCOCC3)nc2)n1 [Example 178, 4-[4-(2-aminopyrimidin-5-yl)phenyl]-N-[5-(3-methyl-1,2,4-oxadiazol-5-yl)pyridin-2-yl]tetrahydro-2H-pyran-4-carboxamide]
24.7 nM	388 nM	N#Cc1ccc(NC(=O)C2(c3ccc(-c4cnc(N)c(CO)c4)cc3)CCOCC2)nc1 [Example 179, 4-{4-[6-amino-5-(hydroxymethyl)pyridin-3-yl]phenyl}-N-(5-cyanopyridin-2-yl)tetrahydro-2H-pyran-4-carboxamide]
51.6 nM	480 nM	Nc1ncc(-c2ccc(C3(C(=O)Nc4cccnc4)CCC3)cc2)cn1 [Example 183, 1-[4-(2-aminopyrimidin-5-yl)phenyl]-N-(pyridin-3-yl)cyclobutanecarboxamide]
17.5 nM	955 nM	Nc1ncc(-c2ccc(C3(C(=O)Nc4ccncn4)CCC3)cc2)cn1 [Example 185, 1-[4-(2-aminopyrimidin-5-yl)phenyl]-N-(pyrimidin-4-yl)cyclobutanecarboxamide]
3.2 nM	334 nM	Cc1cc(NC(=O)C2(c3ccc(-c4cnc(N)nc4)cc3)CCC2)ccn1 [Example 186, 1-[4-(2-aminopyrimidin-5-yl)phenyl]-N-(2-methylpyridin-4-yl)cyclobutanecarboxamide]
5.1 nM	517 nM	COc1cc(NC(=O)C2(c3ccc(-c4cnc(N)nc4)cc3)CCC2)ccn1 [Example 187, 1-[4-(2-aminopyrimidin-5-yl)phenyl]-N-(2-methoxypyridin-4-yl)cyclobutanecarboxamide]
